This passage reports IC50 results from PMC9562188, “Characterization of the Aquaporin-9 Inhibitor RG100204 In Vitro and in db/db Mice” (Cells, 2022).

Each structure is given as a SMILES string.

The target of this experiment is T1, Aquaporin-9 (AQP9) (Homo sapiens, UniProt O43315).
T1 construct: 10×His-hAQP9 (N-terminal 10-histidine tag), purified from P. pastoris, reconstituted in proteoliposomes
T1 sequence (O43315 1-295): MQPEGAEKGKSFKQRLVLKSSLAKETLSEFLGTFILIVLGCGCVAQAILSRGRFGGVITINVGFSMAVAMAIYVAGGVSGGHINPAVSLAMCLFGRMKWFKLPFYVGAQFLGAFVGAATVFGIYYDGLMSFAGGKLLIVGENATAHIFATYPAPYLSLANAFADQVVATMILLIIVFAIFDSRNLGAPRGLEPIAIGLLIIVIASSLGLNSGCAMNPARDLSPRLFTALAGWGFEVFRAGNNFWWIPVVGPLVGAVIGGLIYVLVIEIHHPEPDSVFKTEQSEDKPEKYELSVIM
The experiment is described as follows: stopped-flow light scattering of purified AQP9 proteoliposomes ([…], −[…] Pgly); IC50 (water permeability; glycerol […]) from calcein quenching in human AQP9-expressing CHO cells. In kind it is cell-based.

Take `O=C(CCc1ccc(O)cc1)c1c(O)cc(O)cc1O` [phlor, phloretin]: the IC50 was about 200 nM.
